{"source": "patent US20040009899A1", "about": "“Treating dominant disorders” (priority 2002, published 2004)", "key": {"R6/2 mice [1]": {"test_system": "R6/2 mice", "assay": "Bar test to assess motor skill", "type": "in vivo, mouse", "conditions": "compared to untreated or saline treated R6/2 mice", "description": "Bar test to assess motor skill: Each mouse was held by its tail and allowed to grasp a bar (0.25 cm in diameter, 60 cm long) suspended 30 cm above a padded bench. After the mouse had firmly grasped the bar, the test was begun by releasing its tail. The mouse was allowed two minutes to “escape” by climbing along the bar to one of the bar supports. The mouse was given both performance and time ratings. Performance ratings were based on the following scale: 0, unable to hold bar; 1, holds bar, unable to bring hind limbs to bar; 2, holds bar, draws hind limbs to bar (i.e., 3 paws firmly on bar); 3, holds bar, moves along bar (i.e., moves at least 2 inches in a coordinated manner along bar); 4, escapes (i.e., mouse touches a bar support with one paw). Time ratings were based on the following scale: 0, unable to hold bar (0-3 seconds); 1, holds bar for 4-30 seconds; 2, holds bar for 31-60 seconds; 3, holds bar for 61-90 seconds; 4, holds bar for 91-120 seconds. If the mouse had not reached one of the bar supports by the end of the two minute test period it was removed from the bar. […]\n(§1) At 9 weeks of age, the mice in each group received saline (group 1) or HDs at 2.0 mg/kg, 5.0 mg/kg, or 20.0 mg/kg (groups 2, 3, and 4, respectively) by i.p. injection every 48 hours. […] Weight stability, clasping behavior, motility, and motor skill were assessed weekly during the treatment period. […]"}, "R6/2 mice [2]": {"test_system": "R6/2 mice", "assay": "Clasping test", "type": "in vivo, mouse", "conditions": "any group (2.0, 5.0 or 20.0 mg/kg i.p. every 48 hours)", "description": "Clasping test: Dystonic movement was assessed using a procedure adapted from Yamamoto and colleagues (Yamamoto et al., Cell, 101:57-66, 2000). Each animal was suspended by the tail for 15 seconds, and its behavior was videotaped for subsequent analysis. The number and duration of abnormal movements were recorded upon viewing the videotaped behavior. An abnormal movement was defined as any dystonic movement of hindlimbs and/or forelimbs and/or trunk during which the limbs were pulled in toward the body in a manner distinct from that observed in wild-type mice. The duration of dystonic movements was recorded as a percent of total time. Mice were assessed for clasping score and clasping duration. The test period was divided into 2-second increments.\nIn other experiments, R6/2 mice were divided into five groups (designated groups 1-5) containing eight to ten animals each. Groups 1-4 received either saline (group 1) or a specific amount of HDs (groups 2-4). Group 5 included untreated R6/2 mice. A sixth group included untreated non-transgenic B6CBA control mice. […]\nas §1"}, "non-transgenic mice": {"test_system": "non-transgenic mice", "conditions": "mouse, in vivo, 0.15 mg/kg", "description": "Cannulation and microsurgery—Method 2: Pump cannulas were prepared 48 hours before surgery. For adaptation to mice, Alzet pump cannulas were ground to a length of 2 mm. The cannulas then were sterilized by gas ozonation. Mice were anesthetized via i.p. injection with 100 mg/kg of a ketamine/xylazine solution containing 8 mg/mL ketamine and 1 mg/mL xylazine in 0.9% saline. Once anesthetized, each mouse was cannulated. Each anesthetized mouse was placed in a Stoelting Stereotaxic Frame with a mouse adapter (Stoelting Instruments). An incision was made using a scalpel, and the skin and tissue were pulled back with swabs to reveal the skull. The cannulation site was positioned for optimum access to the ventricle, at coordinates AP −0.2 mm, Horiz −1 mm from bregma. A cannula entry port and two bone screw ports were opened in the skull using a Dremel Flex Shaft Drill (Stoelting Instruments) with a 2.1 mm burr. The cannula was lowered into place and affixed using Loctite 454 (Loctite Corp., Avon, Ohio). An Alzet Mini-Osmotic Pump was inserted into a pouch beneath the skin and attached to the cannula with silastic tubing. The wound was closed using wound clips and the animal was allowed to recuperate.\nDelivery of PNA oligomer solutions: All handling of tubing and cannulas was done under sterile conditions. […]"}}}
{"substance": "HDs: sense PNA oligomer, 14 residues, 5′-GGACTGCCGTGCCG-3′ (SEQ ID NO:3), specific for the expanded human HD allele (all peptide nucleic acid (PNA))", "values": [{"measurement": "motor skill (bar test)", "setting": "R6/2 mice [1]; 5.0 mg/kg i.p. every 48 hours", "value": "increased motor skill"}, {"measurement": "motor skill (bar test)", "setting": "R6/2 mice [1]; 20.0 mg/kg i.p. every 48 hours", "value": "increased motor skill"}, {"measurement": "clasping behavior over the treatment period", "setting": "R6/2 mice [2]", "value": "No significant alterations in clasping behavior"}, {"measurement": "effect of treatment on non-transgenic animals", "setting": "non-transgenic mice", "value": "appeared unaffected"}]}
